Data on 41 compounds can be found in ChEMBL document CHEMBL5512597, “Triazole hybrid compounds: A new frontier in malaria treatment” (Eur J Med Chem, 2023).

In brackets after ≈: the same amount, converted by molar mass.

Format in all cases: functional, organism-based
For experiment [1], the system named is Plasmodium falciparum. In words: Antimalarial activity against Plasmodium falciparum.
For experiment [2], the system named is Plasmodium falciparum. Briefly: Antimalarial activity against Plasmodium falciparum 3D7 infected in A+ human erythrocytes assessed as reduction in parasite growth incubated for 72 hrs by SYBR Green I staining based analysis. The settings on record: 3D7, Erythrocyte.
Experiment [3] has as its system Plasmodium falciparum. Briefly: Antimalarial activity against Plasmodium falciparum Dd2 infected in A+ human erythrocytes assessed as reduction in parasite growth incubated for 72 hrs by SYBR Green I staining based analysis. Conditions: Dd2, Erythrocyte.
Experiment [4] has as its system Plasmodium falciparum. Briefly: Antimalarial activity against Plasmodium falciparum K1 infected in A+ human erythrocytes assessed as reduction in parasite growth incubated for 72 hrs by SYBR Green I staining based analysis. The settings on record: K1, Erythrocyte.
Experiment [5] relates to Plasmodium falciparum. Briefly: Antimalarial activity against Plasmodium falciparum assessed as parasite growth inhibition incubated for 36 to 40 hrs by JSB staining based analysis.
The test system of experiment [6] is Plasmodium falciparum. In words: Antiplasmodial activity against CQ-sensitive Plasmodium falciparum NF54.

A word on the IC50: it is the concentration that gives 50% inhibition. In turn, `CC1=C(C(=O)Nc2ccccc2)C(c2ccc(OCc3cn(Cc4ccccc4)nn3)cc2)n2ncnc2N1` (configuration not stated) showed an IC50 with Plasmodium falciparum [1] of 3120 nM.

Compound `CC1=C(C(=O)Nc2ccc(C)cc2)C(c2ccc(OCc3cn(Cc4ccccc4)nn3)cc2)n2c(nc3ccccc32)N1` (configuration not stated) displayed an IC50 in the experiment with Plasmodium falciparum [1] of 1920 nM.

Usually EC50 stands for the concentration needed to bring the measured effect to its halfway point. For the compound `C[C@H]1[C@H](OC(=O)CCC(=O)OCCCc2cn(-c3ccnc4cc(Cl)ccc34)nn2)O[C@@H]2O[C@@]3(C)CC[C@H]4[C@H](C)CC[C@@H]1[C@@]24OO3`, the concentration giving a half-maximal response (EC50) amounted to 5.4 nM with Plasmodium falciparum [2], 4.6 nM with Plasmodium falciparum [3] and 2.4 nM in the experiment on Plasmodium falciparum [4].

In the case of `C=C[C@H]1CN2CC[C@H]1C[C@H]2[C@H](O)c1ccnc2ccc(OC)cc12` [QUININE], the half-inhibitory concentration (IC50) was determined as 0.268 µg/mL (≈ 0.826 µM) in the experiment with Plasmodium falciparum [5] and 83 nM with Plasmodium falciparum [1].

The compound `Clc1ccc2c(-n3cc(-c4ccccn4)nn3)ccnc2c1` returned an IC50 in the experiment on Plasmodium falciparum [6] of 28 µM.

Consider `CCCCc1nc(C)c2ccc(-c3cn(CCOC(=O)CCC(=O)O[C@@H]4O[C@@H]5O[C@@]6(C)CC[C@H]7[C@H](C)CC[C@@H]([C@H]4C)[C@@]57OO6)nn3)cc2c1CCCC`, for which the EC50 was 9.2 nM with Plasmodium falciparum [2], 10 nM in the experiment on Plasmodium falciparum [3] and 4.2 nM in the experiment on Plasmodium falciparum [4].

For the compound `C[C@H]1[C@H](OC(=O)CCC(=O)OCc2cn(-c3ccnc4cc(Cl)ccc34)nn2)O[C@@H]2O[C@@]3(C)CC[C@H]4[C@H](C)CC[C@@H]1[C@@]24OO3`, the EC50 in the experiment on Plasmodium falciparum [2] stood at 5.3 nM.

With `CC1=C(C(=O)Nc2ccccc2C)C(c2ccc(OCc3cn(Cc4ccccc4)nn3)cc2)n2c(nc3ccccc32)N1` (configuration not stated), in the experiment with Plasmodium falciparum [1], the 50% inhibitory concentration (IC50) worked out at 1530 nM.

As to `O=c1ccc2ccc(OCc3cn(-c4ccc(OCc5ccc(Cl)cc5)cc4)nn3)cc2o1`, in the experiment on Plasmodium falciparum [5], the IC50 stood at 0.86 µg/mL (≈ 1.87 µM).

For `C[C@H]1[C@@H](OCCc2cn(-c3ccnc4cc(Cl)ccc34)nn2)O[C@@H]2O[C@@]3(C)CC[C@H]4[C@H](C)CC[C@@H]1[C@@]24OO3`, the EC50 was 8.8 nM in the experiment on Plasmodium falciparum [2], 4.5 nM in the experiment on Plasmodium falciparum [3] and 2 nM with Plasmodium falciparum [4].

Take `CC1=C(C(=O)Nc2ccc(C(F)(F)F)cc2)C(c2ccc(OCc3cn(Cc4ccccc4)nn3)cc2)n2ncnc2N1` (configuration not stated): inhibition in the experiment on Plasmodium falciparum [1] was half-maximal at 820 nM (IC50).

Consider `CC1=C(C(=O)Nc2cccc(Cl)c2)C(c2ccc(OCc3cn(Cc4ccccc4)nn3)cc2)n2ncnc2N1` (configuration not stated), for which, in the experiment on Plasmodium falciparum [1], the IC50 worked out at 2240 nM.

Consider `O=c1ccc2ccc(OCc3cn(-c4ccc(OCc5ccc(Br)cc5)cc4)nn3)cc2o1`, for which the IC50 in the experiment with Plasmodium falciparum [5] amounted to 0.54 µg/mL (≈ 1.07 µM).

As to `C[C@H]1[C@H](OC(=O)CCC(=O)OCCCCc2cn(-c3ccnc4cc(Cl)ccc34)nn2)O[C@@H]2O[C@@]3(C)CC[C@H]4[C@H](C)CC[C@@H]1[C@@]24OO3`, the half-maximal effective concentration (EC50) in the experiment on Plasmodium falciparum [2] is 6.2 nM; with Plasmodium falciparum [3] it was 4.4 nM; in the experiment with Plasmodium falciparum [4], 2.5 nM.

The compound `CC1=C(C(=O)Nc2ccc(C)cc2)C(c2ccc(OCc3cn(Cc4ccccc4)nn3)cc2)n2ncnc2N1` (configuration not stated) had an IC50 in the experiment with Plasmodium falciparum [1] of 1840 nM.

For `Cc1ccccc1COc1ccc(-n2cc(COc3cc(=O)oc4ccccc34)nn2)cc1`, in the experiment with Plasmodium falciparum [5], the 50% inhibitory concentration (IC50) came out at 0.53 µg/mL (≈ 1.21 µM).

With `O=c1ccc2ccc(OCc3cn(-c4ccc(OCc5ccc([N+](=O)[O-])cc5)cc4)nn3)cc2o1`, in the experiment on Plasmodium falciparum [5], the concentration for half-maximal inhibition (IC50) was determined as 1.2 µg/mL (≈ 2.55 µM).

For the compound `Cc1ccc(COc2ccc(-n3cc(COc4ccc5ccc(=O)oc5c4)nn3)cc2)cc1`, the half-inhibitory concentration (IC50) in the experiment on Plasmodium falciparum [5] was found to be 0.38 µg/mL (≈ 0.865 µM).

On to `CC1=C(C(=O)Nc2ccc(Cl)cc2)C(c2ccc(OCc3cn(Cc4ccccc4)nn3)cc2)n2c(nc3ccccc32)N1` (configuration not stated), for which the 50% inhibitory concentration (IC50) with Plasmodium falciparum [1] was found to be 1690 nM.

As to `CC1=C(C(=O)Nc2ccccc2C)C(c2ccc(OCc3cn(Cc4ccccc4)nn3)cc2)n2ncnc2N1` (configuration not stated), the IC50 with Plasmodium falciparum [1] was 1860 nM.

Take `CC1=C(C(=O)Nc2ccc(F)cc2)C(c2ccc(OCc3cn(Cc4ccccc4)nn3)cc2)n2ncnc2N1` (configuration not stated): the half-inhibitory concentration (IC50) in the experiment with Plasmodium falciparum [1] turned out to be 4360 nM.

For the compound `O=C(Cn1cc(CSc2ccc(Br)cc2)nn1)OCc1ccc([N+](=O)[O-])cc1`, half-maximal inhibition with Plasmodium falciparum [1] (IC50) required 184 nM.

As to `CC1=C(C(=O)Nc2ccccc2)C(c2ccc(OCc3cn(Cc4ccccc4)nn3)cc2)n2c(nc3ccccc32)N1` (configuration not stated), in the experiment on Plasmodium falciparum [1], the IC50 is 1660 nM.

`CC1=C(C(=O)Nc2ccc(C(F)(F)F)cc2)C(c2ccc(OCc3cn(Cc4ccccc4)nn3)cc2)n2c(nc3ccccc32)N1` (configuration not stated): in the experiment with Plasmodium falciparum [1], the IC50 amounted to 2860 nM.

`Cc1cccc(COc2ccc(-n3cc(COc4cc(=O)oc5ccccc45)nn3)cc2)c1`: in the experiment with Plasmodium falciparum [5], the IC50 worked out at 1.05 µg/mL (≈ 2.39 µM).

For `C[C@H]1[C@@H](OCCCn2cc(-c3ccnc4cc(Cl)ccc34)nn2)O[C@@H]2O[C@@]3(C)CC[C@H]4[C@H](C)CC[C@@H]1[C@@]24OO3`, the concentration giving a half-maximal response (EC50) with Plasmodium falciparum [2] came to 9.4 nM; with Plasmodium falciparum [3] it was 5.2 nM; with Plasmodium falciparum [4], 3.8 nM.

`COc1ccc(COC(=O)Cn2cc(CSc3ccc(Br)cc3)nn2)cc1` had an IC50 in the experiment with Plasmodium falciparum [1] of 178 nM.

In the case of `CC1=C(C(=O)Nc2ccccc2Cl)C(c2ccc(OCc3cn(Cc4ccccc4)nn3)cc2)n2c(nc3ccccc32)N1` (configuration not stated), the IC50 in the experiment on Plasmodium falciparum [1] stood at 2110 nM.

As to `Cc1nc(-c2ccccc2)c(-c2ccccc2)c2cc(-c3cn(CCOC(=O)CCC(=O)O[C@@H]4O[C@@H]5O[C@]6(C)O[C@]57[C@@H](CC[C@@H](C)[C@@H]7C[C@H]6O)[C@H]4C)nn3)ccc12`, the EC50 in the experiment on Plasmodium falciparum [2] was found to be 646 nM; in the experiment with Plasmodium falciparum [3] it was 444 nM; in the experiment on Plasmodium falciparum [4], 256 nM.

With `Cc1nc(-c2ccccc2)c(-c2ccccc2)c2cc(-c3cn(CCOC(=O)CCC(=O)O[C@@H]4O[C@@H]5O[C@@]6(C)CC[C@H]7[C@H](C)CC[C@@H]([C@H]4C)[C@@]57OO6)nn3)ccc12`, the 50% effective concentration (EC50) came to 5.3 nM in the experiment with Plasmodium falciparum [2], 4.8 nM with Plasmodium falciparum [3] and 3.3 nM in the experiment on Plasmodium falciparum [4].

Turning to `C[C@H]1[C@H](OCc2cn(-c3ccnc4cc(Cl)ccc34)nn2)O[C@@H]2O[C@@]3(C)CC[C@H]4[C@H](C)CC[C@@H]1[C@@]24OO3`, the EC50 turned out to be 27.5 nM with Plasmodium falciparum [2], 10.6 nM in the experiment with Plasmodium falciparum [3] and 5.9 nM in the experiment with Plasmodium falciparum [4].

Turning to `O=c1cc(OCc2cn(-c3ccc(OCc4ccccc4[N+](=O)[O-])cc3)nn2)c2ccccc2o1`, in the experiment on Plasmodium falciparum [5], the 50% inhibitory concentration (IC50) came to 0.98 µg/mL (≈ 2.08 µM).

Compound `CC1=C(C(=O)Nc2ccccc2Cl)C(c2ccc(OCc3cn(Cc4ccccc4)nn3)cc2)n2ncnc2N1` (configuration not stated) came in with a 50% inhibitory concentration (IC50) in the experiment on Plasmodium falciparum [1] of 1680 nM.

`O=c1cc(OCc2cn(-c3ccc(OCc4cccc([N+](=O)[O-])c4)cc3)nn2)c2ccccc2o1`: in the experiment on Plasmodium falciparum [5], the IC50 was 0.6 µg/mL (≈ 1.28 µM).

In the experiment on Plasmodium falciparum [1], `CC1=C(C(=O)Nc2cccc(Cl)c2)C(c2ccc(OCc3cn(Cc4ccccc4)nn3)cc2)n2c(nc3ccccc32)N1` (configuration not stated) showed an IC50 of 3120 nM.

Turning to `O=c1ccc2ccc(OCc3cn(-c4ccc(OCc5ccc(F)cc5)cc4)nn3)cc2o1`, in the experiment on Plasmodium falciparum [5], the concentration for half-maximal inhibition (IC50) is 0.49 µg/mL (≈ 1.11 µM).

On to `C[C@H]1[C@@H](OCCCCc2cn(-c3ccnc4cc(Cl)ccc34)nn2)O[C@@H]2O[C@@]3(C)CC[C@H]4[C@H](C)CC[C@@H]1[C@@]24OO3`, for which the results for the EC50 with Plasmodium falciparum [2], with Plasmodium falciparum [3] and in the experiment on Plasmodium falciparum [4] were 8.4 nM, 6.1 nM and 3.7 nM, respectively.

In the case of `CC1=C(C(=O)Nc2ccc(F)cc2)C(c2ccc(OCc3cn(Cc4ccccc4)nn3)cc2)n2c(nc3ccccc32)N1` (configuration not stated), the IC50 in the experiment with Plasmodium falciparum [1] was 990 nM.

For the compound `CC1=C(C(=O)Nc2ccc(Cl)cc2)C(c2ccc(OCc3cn(Cc4ccccc4)nn3)cc2)n2ncnc2N1` (configuration not stated), 1680 nM corresponded to half-maximal inhibition in the experiment on Plasmodium falciparum [1] (IC50).

`C[C@H]1[C@H](OC(=O)CCC(=O)OCCc2cn(-c3ccnc4cc(Cl)ccc34)nn2)O[C@@H]2O[C@@]3(C)CC[C@H]4[C@H](C)CC[C@@H]1[C@@]24OO3`: the 50% effective concentration (EC50) in the experiment with Plasmodium falciparum [2] was determined as 8 nM; with Plasmodium falciparum [3] it was 4.9 nM; in the experiment with Plasmodium falciparum [4], 2.6 nM.

Turning to `C[C@H]1[C@@H](OCc2cn(-c3ccnc4cc(Cl)ccc34)nn2)O[C@@H]2O[C@@]3(C)CC[C@H]4[C@H](C)CC[C@@H]1[C@@]24OO3`, in the experiment on Plasmodium falciparum [2], the concentration for a half-maximal effect (EC50) was 9 nM.
